These results are taken from patent US9567629B2, “Labeled enzyme compositions, methods and systems” (LIFE TECHNOLOGIES CORPORATION, priority 2009, dated 2017).

The subject of assay [1] is [enzyme•DNA•nucleotide] ternary complex with AF647-C6-dG6P. The experiment in a line: Stopped-flow measurements of t−1 (nucleotide dissociation from ternary complex). In kind it is biochemical. Conditions: 330 nM polymerase, 100 nM duplex, 7 μM AF647-C6-dG6P, chase 50 μM non-labeled dNTP, 2 mM MnCl2. Here is the method:
The stopped-flow techniques for measuring t−1 (1/k−1) followed the techniques described by M. Bakhtina (2009 Biochemistry 48:3197-3208).
The rate of the nucleotide dissociation (k1) from the ternary complex of [enzyme•DNA•nucleotide] was measured in an Applied Photophysics SX20 stopped-flow spectrometer by monitoring changes […] a duplex Alexa fluor 546 dye-labeled-DNA template following the mixing of the [enzyme•DNA•labeled nucleotide] ternary complex with 50 μM cognate non-labeled deoxynucleoside triphosphate in a buffer containing 50 mM Tris-HCl (pH 7.5), 50 mM NaCl, 4 mM DTT, 0.2% BSA, and 2 mM MnCl2.
The ternary complexes were prepared using: 330 nM polymerase, 100 nM template/primer duplex, and 7 μM terminal phosphate-labeled nucleotides (AF647-C6-dG6P).
The averaged stopped-flow fluorescence traces (>1.5 msec) were fitted with a single exponential equation (2) to extrapolate the rate of the nucleotide dissociation (k−1) from the [enzyme•DNA•nucleotide] ternary complex. Fluorescence=A1*e^−k−1*t+C (equation 2) where A1 represents the corresponding fluorescence amplitude, C is an offset constant, and k−1 and the observed rate constants for the fluorescence transition.

For assay [2], the system named is dye-labeled primer-template duplex with AF647-C6-dG6P. The experiment in a line: Stopped-flow measurements of tpol (nucleotide incorporation kinetics). In kind it is biochemical. Conditions: 330 nM polymerase, 100 nM template/primer duplex, 7 μM AF647-C6-dG6P, 2 mM MnCl2. As to the method: In this example, the t−1 and tpol values of a Phi-29 polymerase comprising the amino acid sequence of SEQ ID NO: 3 and a B103 polymerase comprising the amino acid sequence of SEQ ID NO: 34 (referred to as “mB103” in the table below) and including amino acid substitutions at various positions were measured using a stopped-flow procedure. The stopped-flow techniques for measuring tpol (1/kpol) followed the techniques described by MP Roettger (2008 Biochemistry 47:9718-9727; M. Bakhtina 2009 Biochemistry 48:3197-320).
The template sequence (SEQ ID NO: 44) further included an Alexa Fluor 546 dye moiety bonded to the 5′ position of the template.
The kinetics of nucleotide incorporation by each polymerase was measured in an Applied Photophysics SX20 stopped-flow spectrometer by monitoring changes in fluorescence from the dye-labeled primer-template duplex complexed to enzyme, following the mixing of the enzyme-DNA complex with dye-labeled nucleotides. […]
The primer and template were annealed to form a dye-labeled primer-template duplex using standard methods. […] The dye-labeled nucleotide AF647-C6-dG6P was then added to a final concentration of 7 μM, and the resulting fluorescence was monitored over time. […]

As to “Phi-29 (exo−): exonuclease-minus Phi-29 polymerase (Phi-29 polymerase comprising SEQ ID NO: 3) [reference compound]”, the “t−1” value in assay [1] is on record as 27. The substance also had a tpol in assay [2] of 11.
